Data published in patent publication US10835470B2, “Cosmetics composition containing ginsenoside as active ingredient” (AMOREPACIFIC CORPORATION, priority 2015, dated 2020).

What was measured:
[1] = system: tyrosinase enzyme extracted from mushrooms; test: Tyrosinase inhibitory effect, absorbance at 475 nm; type: biochemical; conditions: mushroom tyrosinase, tyrosine substrate, 37° C., concentration of test substance not given
Description: The tyrosinase enzyme was extracted from mushrooms and obtained from Sigma (SIGMA). First, tyrosine as a substrate was dissolved in distilled water to prepare 0.3 mg/ml of a solution. The solution was placed by 1.0 ml in a test tube, and then 1.0 ml of potassium phosphate buffer solution (concentration 0.1 mol, PH 6.8) and 0.7 ml of distilled water were added to prepare a reaction solution.
0.2 ml of the test substance was placed in the reaction solution, and then the mixture was allowed to react in a thermostatic chamber at 37° C. for 10 minutes. At this time, as a negative control group (no addition), that obtained by adding 0.2 ml of only solvent in place of each test substance was prepared. As a positive control group, ascorbic acid was used. 2500 unit/ml of tyrosinase solution was added by 0.1 ml to the reaction solution, and the mixture was reacted again in a thermostatic chamber at 37° C. for 10 minutes. The test tube containing this reaction solution was placed in ice water and quenched to stop the reaction. Absorbance at a wavelength of 475 nm was measured with a photoelectron spectrometer. Each tyrosinase inhibitory effect was calculated by Mathematical Equation 1 below. The tests were conducted on ginsenoside Rd and compound O, respectively. Tyrosinase inhibition rate (%)=100−[{(Reaction absorbance of test substance)/(Reaction absorbance of negative control group)}×100] […]

[2] = system: keratinocytes (cell line: HaCaT); test: Inhibition of UVB-induced reactive oxygen species (ROS) generation, DCF-DA fluorescence; type: cell-based
Description: 5×10^4 keratinocytes (cell line: HaCaT; obtained from: ATCC) was placed in each well of a 24-well plate and allowed to adhere for 24 hours. After 16 hours, ginsenoside Rd was treated with 1%. […] After 2 hours, the culture solution was removed, and 100 μl of phosphate buffer saline (PBS) was added to each well. The keratinocytes were irradiated with ultraviolet rays of 30 mJ/cm^2 using an ultraviolet B (UVB) lamp (Model: […], UV B 15 W, Sankyo Denki, Japan), and then PBS was taken out and 200 μl of keratinocyte culture solution was added to each well. Herein, ginsenoside Rd was again treated and the amount of reactive oxygen species increased by ultraviolet stimulation was determined for each fixed period of time. The amount of ROS was determined by referring to Tan's method for measuring the fluorescence of DCF-DA (dichlorofluorescin diacetate) oxidized by ROS (Tan et al., 1998, J. Cell Biol. Vol. 141, pp 1423-1432). The ginsenoside Rd was replaced with Compound O, and the test was carried out in the same process.

B16/F10 melanoma cells = test: Inhibition of melanin production in B16/F10 melanoma cells; type: cell-based, mouse; conditions: 72 hours, concentration not given
From the text: The B16/F10 melanoma used in this test example is a cell line derived from a mouse and is a cancer cell caused by malignant alteration of a cell secreting a black pigment called melanin. The extent to which and melanin production was decreased by treating the test substance during artificial cultivation of this cell was compared and evaluated. The B16/F10 melanoma used in this test example was purchased from the Korean Cell Line Bank (KCLB No: 8008) and used. Measurement of melanin biosynthesis inhibitory effect of B16/F10 melanoma was carried out as follows. B16/F10 melanoma was dispensed in a 6-well plate (5×10^5/well) and cultured in DMEM (Dulbecco's Modified Eagle's Medium) containing 10% FBS (fetal bovine serum) for about 24 hours at 37° C. in a 5% CO2 incubator (MCO-20 AIC, Sanyo). The test substance was added to a new DMEM medium not containing FBS and allowed to stand for 72 hours. […] Absorbance was measured at 405 nm using an ELISA reader (DIbiotech, Korea). […] In comparison with the melanin content in the control group, the degree of inhibition of melanin production of each test substance was measured. […] Melanin production inhibition rate was calculated according to Mathematical Equation 2 below, and the results are shown in Table 4. Melanin production inhibition rate (%)=100−[{(Absorbance of test substance)/(Absorbance of control group)}×100] […]

Staphylococcus aureus = test: Antibacterial activity, MIC by two-fold dilution; type: cell-based; conditions: 32° C., 48 hours
Description: (§1) Antibacterial experiments were conducted to evaluate the antibacterial activity of ginsenoside Rd and Compound O. Specific experimental methods are as follows. The strains of Staphylococcus aureus, Escherichia coli and Pseudomonas aeruginosa used in the experiment were cultured in Trypticase Soy Broth, and the strains of Candida albicans, Aspergillus niger were cultured in Sabouraud Dextrose Broth medium. A diluted solution in which the culture solution is diluted 1/100 (Candida albicans strain 1/10) in each culture medium was used as a test strain solution. A spore suspension of Aspergillus niger (2×10^8 cfu/ml) was used as a test strain solution. A solution prepared by adding 0.15 ml of the test strain solution to 15 ml of each medium and thoroughly mixing the same was used as a diluted solution. 96 Deep well plate was placed by 16 μl ginsenoside Rd 10 ppm to 1 row and placed by 184 μl a diluted solution. The diluted solution was placed by 100 μl in the rest of the wells. The mixed solution of 1 row was thoroughly mixed and 100 μl was taken and placed in 2 row and thoroughly mixed. 100 μl was taken again and placed in 3 row. A two-fold dilution was carried out in this manner. Staphylococcus aureus, Escherichia coli and Pseudomonas aeruginosa were cultured in a thermostatic chamber at 32° C., and Candida albicans and Aspergillus niger were cultured in a thermostatic chamber at 25° C. After 48 hours, the growth of strains was checked by the degree of suspension and microscope, and the Minimum Inhibitory Concentration (MIC) value was determined. The ginsenoside Rd was replaced with Compound O, and the test was carried out in the same process.

Escherichia coli = test: Antibacterial activity, MIC by two-fold dilution; type: cell-based; conditions: 32° C., 48 hours
Description: as §1

Candida albicans = test: Antibacterial activity, MIC by two-fold dilution; type: cell-based; conditions: 25° C., 48 hours
Description: as §1

Pseudomonas aeruginosa = test: Antibacterial activity, MIC by two-fold dilution; type: cell-based; conditions: 32° C., 48 hours
Description: as §1

Aspergillus niger = test: Antibacterial activity, MIC by two-fold dilution; type: cell-based; conditions: 25° C., 48 hours
Description: as §1

In the case of `O=C1O[C@H]([C@@H](O)CO)C(O)=C1O` [Ascorbic acid, reference compound], the “Tyrosinase inhibition rate (%)” value [1] is reported as 56%.
For `CC(C)=CCC[C@](C)(O[C@@H]1O[C@H](CO)[C@@H](O)[C@H](O)[C@H]1O)[C@H]1CC[C@]2(C)[C@@H]1[C@H](O)C[C@@H]1[C@@]3(C)CC[C@H](O[C@@H]4O[C@H](CO)[C@@H](O)[C@H](O)[C@H]4O[C@@H]4O[C@H](CO)[C@@H](O)[C@H](O)[C@H]4O)C(C)(C)[C@@H]3CC[C@]12C` [Ginsenoside Rd], the “Amount of ROS, ratio to vehicle control” value ([2]; 0 hr after irradiation of UVB 30 mJ/cm^2, test substance treated with 1%) was 100, the “Amount of ROS, ratio to vehicle control” value ([2]; 2 hr after irradiation of UVB 30 mJ/cm^2, test substance treated with 1%) was 251 and the “Amount of ROS, ratio to vehicle control” value ([2]; 3 hr after irradiation of UVB 30 mJ/cm^2, test substance treated with 1%) was 286. For the same compound, the “Melanin production inhibition rate (%)” value (B16/F10 melanoma cells) was 67%, the “Minimum Inhibitory Concentration (MIC)” value (Staphylococcus aureus) was 0.07% and the “Minimum Inhibitory Concentration (MIC)” value (Escherichia coli) was 0.191%. The “Minimum Inhibitory Concentration (MIC)” value (Candida albicans) was greater than 4%, the “Minimum Inhibitory Concentration (MIC)” value (Pseudomonas aeruginosa) was 0.25% and the “Minimum Inhibitory Concentration (MIC)” value (Aspergillus niger) was greater than 3%. For the same compound, the “Tyrosinase inhibition rate (%)” value [1] was 68%.
With `O=c1cc(CO)occ1O` [Kojic acid, reference compound] the “Melanin production inhibition rate (%)” value (B16/F10 melanoma cells) was 49%.
